Tests used:
[1] = biological target: T1, MK2 (Homo sapiens, UniProt P49137); assay: MK2 degradation in human THP-1 monocytic cells (MSD, 24 h); type: cell-based; set-up: endogenous in cells; settings: for Dmax: THP-1, THP-1 cells; for DC50: THP-1 cells, read-out: MK2 MSD THP-1 degradation 24 h GMean External Abs DC50
Summary of the method: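 THP-1 cells (200,000/well) treated 24 h at 37 °C with compound dilution series (up to 10 points, 0.1% DMSO). MK2 in RIPA lysates quantified by MSD sandwich immunoassay. DC50 from 4-parameter logistic fit, DMSO-treated cells as high and lysis buffer as low signal.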

[2] = biological target: T1, MK2; assay: MK2 degradation in human SW1353 cells (MSD, 24 h); type: cell-based; set-up: endogenous in cells; host or cells: SW-1353 (ATCC HTB-94); key to MK2 MSD SW 1353 24 h Dmax %: —: “-”=not tested or inactive; settings: for Dmax: read-out: MK2 MSD SW 1353 24 h Dmax %; for DC50: read-out: MK2 MSD SW1353 degradation 24 h GMean External Abs DC50
Summary of the method: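 SW1353 chondrosarcoma cells were treated with up to 10-point serial dilutions (0.1% DMSO) for 24 h at 37 °C, then lysed in RIPA buffer. MK2 levels were quantified by MSD sandwich immunoassay; DC50 came from a 4-parameter logistic fit normalised to DMSO-treated cells (high) and lysis buffer (low).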

T1 sequence (P49137 whole entry): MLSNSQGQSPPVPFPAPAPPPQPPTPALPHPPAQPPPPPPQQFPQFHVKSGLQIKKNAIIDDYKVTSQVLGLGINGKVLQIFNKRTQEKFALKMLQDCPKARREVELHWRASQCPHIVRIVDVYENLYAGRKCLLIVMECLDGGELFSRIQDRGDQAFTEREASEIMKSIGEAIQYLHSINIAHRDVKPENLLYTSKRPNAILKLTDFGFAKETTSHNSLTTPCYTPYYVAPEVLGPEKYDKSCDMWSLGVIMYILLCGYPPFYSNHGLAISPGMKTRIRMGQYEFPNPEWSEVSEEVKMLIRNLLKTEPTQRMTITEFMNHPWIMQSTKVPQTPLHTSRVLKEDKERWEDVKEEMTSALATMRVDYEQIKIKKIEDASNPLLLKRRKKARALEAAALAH

Row | Compound | Dmax [1] [%] | DC50 [1] [nM] | Dmax [2] [%] | DC50 [2] [nM] | MK2 MSD SW 1353 24 h Dmax % [2]
1 | C[C@@H]1CNc2c(sc3ccc4nc(-c5ccc(N6CCC(CN7CCN(c8ccc9c(c8)CN(C8CCC(=O)NC8=O)C9=O)CC7)CC6)cc5)ccc4c23)C(=O)N1 (some centres unmarked) [Compound I-313] | > 75 | 1 to 10 | > 75 | 1 to 10 | 
2 | C[C@@H]1CNc2c(sc3ccc4nc(-c5ccc(N6CCC(CN7CCN(c8cccc9c8n(C)c(=O)n9C8CCC(=O)NC8=O)CC7)CC6)cc5)ccc4c23)C(=O)N1 (some centres unmarked) [Compound I-315] | > 75 | 1 to 10 | > 75 | 1 to 10 | 
3 | Cn1c(=O)n(C2CCC(=O)NC2=O)c2cccc(N3CCC(CN4CCC5(CC4)CNC(=O)c4c5[nH]c5c4CCc4cnc(-c6ccccc6F)cc4-5)CC3)c21 (centres unmarked) [Compound I-316] | < 50 | > 100 | < 50 | > 100 | 
4 | C[C@@H]1CNc2c(sc3ccc4nc(-c5ccc(N6CCC(CN7CCN(c8cccc9c(N%10CCC(=O)NC%10=O)cncc89)CC7)CC6)cc5)ccc4c23)C(=O)N1 [Compound I-317] | > 75 | < 1 | > 75 | 1 to 10 | 
5 | C[C@@H]1CNc2c(sc3ccc4nc(-c5cccc(N6CCN(C(=O)COCCOCCc7cccc8c7n(C)c(=O)n8C7CCC(=O)N(C)C7=O)CC6)c5)ccc4c23)C(=O)N1 (some centres unmarked) [Compound I-318] | < 50 | > 100 | < 50 | > 100 | 
6 | C[C@@H]1CNc2c(sc3ccc4nc(N5CCC6(CCN(CC7CCN(c8ccc9c(c8)n(C)c(=O)n9C8CCC(=O)NC8=O)CC7)CC6)CC5)ccc4c23)C(=O)N1 (some centres unmarked) [Compound I-389] | < 50 | > 100 | < 50 | > 100 | 
7 | C[C@@H]1CNc2c(sc3ccc4nc(N5CC6(CCN(CC7CCN(c8ccc9c(c8)n(C)c(=O)n9C8CCC(=O)NC8=O)CC7)CC6)C5)ccc4c23)C(=O)N1 (some centres unmarked) [Compound I-390] | < 50 | > 100 | < 50 | > 100 | 
8 | C[C@@H]1CNc2c(sc3ccc4nc(N5CCC(CN6CCC7(CC6)CCN(c6ccc8c(c6)n(C)c(=O)n8C6CCC(=O)NC6=O)CC7)CC5)ccc4c23)C(=O)N1 (some centres unmarked) [Compound I-391] | > 75 | < 1 | > 75 | < 1 | 
9 | C[C@@H]1CNc2c(sc3ccc4nc(N5CC6(CCN(C7CCN(c8ccc9c(c8)n(C)c(=O)n9C8CCC(=O)NC8=O)CC7)CC6)C5)ccc4c23)C(=O)N1 (some centres unmarked) [Compound I-393] | < 50 | > 100 | < 50 | > 100 | 
10 | C[C@@H]1CNc2c(sc3ccc4nc(N5CCC(N6CCC7(CCN(c8ccc9c(c8)n(C)c(=O)n9C8CCC(=O)NC8=O)CC7)CC6)CC5)ccc4c23)C(=O)N1 (some centres unmarked) [Compound I-395] | > 75 | 1 to 10 | > 75 | < 1 | 
11 | C[C@@H]1CNc2c(sc3ccc4nc(N5CCC(N6CCC7(CC6)CN(c6ccc8c(c6)n(C)c(=O)n8C6CCC(=O)NC6=O)C7)CC5)ccc4c23)C(=O)N1 (some centres unmarked) [Compound I-402] | 50 to 75 | 1 to 10 | > 75 | < 1 | 
12 | C[C@@H]1CNc2c(sc3ccc4nc(-c5ccc(N6CC7(CCN(c8ccc9c(c8)n(C)c(=O)n9C8CCC(=O)NC8=O)CC7)C6)nc5)ccc4c23)C(=O)N1 (stereo partly drawn) [Compound I-409, 3-(3-methyl-5-(2-(5-((R)-10-methyl-8-oxo-9,10,11,12-tetrahydro-8H-[1,4]diazepino[5′,6′:4,5]thieno[3,2-f]quinolin-3-yl)pyridin-2-yl)-2,7-diazaspiro[3.5]nonan-7-yl)-2-oxo-2,3-dihydro-1H-benzo[d]imidazol-1-yl)piperidine-2,6-dione] | > 75 | < 1 | > 75 | < 1 | 
13 | C[C@@H]1CNc2c(sc3ccc4nc(N5CCC(N6CCC7(CCN(c8ccc9c(c8)n(C)c(=O)n9C8CCC(=O)NC8=O)CC7)C6)CC5)ccc4c23)C(=O)N1 (some centres unmarked) [Compound I-410] | > 75 | < 1 | > 75 | < 1 | 
14 | C[C@@H]1CNc2c(sc3ccc4nc(N5CCCN(C6CC7(CCN(c8ccc9c(c8)n(C)c(=O)n9C8CCC(=O)NC8=O)CC7)C6)CC5)ccc4c23)C(=O)N1 (some centres unmarked) [Compound I-411] | 50 to 75 | 10 to 100 | 50 to 75 | 1 to 10 | 
15 | C[C@@H]1CN(C)c2c(sc3ccc4nc(-c5ccc(N6CCN(CCc7cccc8c7n(C)c(=O)n8C7CCC(=O)NC7=O)CC6)cc5)ccc4c23)C(=O)N1 (some centres unmarked) [Compound I-413] | > 75 | < 1 | > 75 | 1 to 10 | 
16 | C[C@@H]1CN(C)c2c(sc3ccc4nc(-c5ccc(N6CCN(CCc7cccc8c7n(C)c(=O)n8C7CCC(=O)NC7=O)CC6)nc5)ccc4c23)C(=O)N1 (some centres unmarked) [Compound I-414] | > 75 | 1 to 10 | > 75 | < 1 | 

The next lines start with the values.

Row | Dmax [1] [%] | DC50 [1] [nM] | Dmax [2] [%] | DC50 [2] [nM] | MK2 MSD SW 1353 24 h Dmax % [2] | Compound
17 | > 75 | < 1 | > 75 | < 1 |  | C[C@@H]1CNc2c(sc3ccc4nc(-c5ccc(N6CCC(CN7CCN(c8ccc9c(c8)n(C)c(=O)n9C8CCC(=O)NC8=O)CC7)CC6)cc5)ccc4c23)C(=O)N1 (some centres unmarked) [Compound I-314]
18 | > 75 | < 1 | > 75 | < 1 |  | Cn1c(=O)n(C2CCC(=O)NC2=O)c2ccc(N3CC(CN4CCN(c5ccc(-c6nccc(-c7cc8c([nH]7)C7(CC7)CNC8=O)n6)c(F)c5)CC4)C3)cc21 (centres unmarked) [Compound I-403, 3-(5-(3-((4-(3-fluoro-4-(4-(4′-oxo-1′,4′,5′,6′-tetrahydrospiro[cyclopropane-1,7′-pyrrolo[3,2-c]pyridin]-2′-yl)pyrimidin-2-yl)phenyl)piperazin-1-yl)methyl)azetidin-1-yl)-3-methyl-2-oxo-2,3-dihydro-1H-benzo[d]imidazol-1-yl)piperidine-2,6-dionee]
19 | > 75 | < 1 | > 75 | < 1 |  | Cn1c(=O)n(C2CCC(=O)NC2=O)c2ccc(N3CC(CN4CCN(c5ccc(-c6nccc(-c7cc8c([nH]7)C7(CCCC7)CNC8=O)n6)cc5)CC4)C3)cc21 (centres unmarked) [Compound I-405]
20 | < 50 | > 100 | < 50 | > 100 |  | Cn1c(=O)n(C2CCC(=O)NC2=O)c2ccc(N3CCC(CN4CCN(c5ccc(-c6cc(-c7cc8c(s7)CCNC8=O)ccn6)cc5)CC4)CC3)cc21 (centres unmarked) [Compound I-406]
21 | < 50 | > 100 |  | > 100 | — | Cn1c(=O)n(C2CCC(=O)NC2=O)c2ccc(N3CC(CN4CCN(c5ccc(-c6cc(-c7cc8c(s7)CCNC8=O)ccn6)cc5)CC4)C3)cc21 (centres unmarked) [Compound I-407]
22 | < 50 | > 100 |  | > 100 | — | Cn1c(=O)n(C2CCC(=O)NC2=O)c2ccc(N3CCC4(CC3)CC(N3CCN(c5cc(-c6cc7c([nH]6)C6(CC6)CNC7=O)ccn5)CC3)C4)cc21 (centres unmarked) [Compound I-408]
23 | > 75 | < 1 | > 75 | < 1 |  | C[C@@H]1CN(C)c2c(sc3ccc4nc(-c5ccc(N6CCN(CC7CN(c8ccc9c(c8)n(C)c(=O)n9C8CCC(=O)NC8=O)C7)CC6)nc5)ccc4c23)C(=O)N1 (some centres unmarked) [Compound I-412]

Reference: patent publication US20230135894A1, “MK2 DEGRADERS AND USES THEREOF” (Kymera Therapeutics, Inc., priority 2021, published 2023)
